Like-named read-outs stand apart in the source and are kept apart here.
How the values were obtained:
[1] = target: mushroom tyrosinase (mTYR); assay: Mushroom tyrosinase inhibition assay; format: biochemical, Agaricus bisporus; set-up: Tyrosinase inhibition (%): dose or concentration left out as unconfirmed; details: for IC50: mushroom tyrosinase; for IC50 / Tyrosinase inhibition (%): L-tyrosine substrate; for Tyrosinase inhibition (%): […] μM of compound
Experimental: The tyrosinase inhibitory activity assays on the synthesized DHIT derivatives 1a – 1 k was performed using mushroom tyrosinase (mTYR), as previously described with minor modification. […] The optical densities of dopachrome produced during incubation were measured using a microplate reader (VersaMax™, Molecular Devices, Sunnyvale, CA, USA) at 492 nm. […] All experiments were conducted in triplicate. To calculate the tyrosinase inhibitory activities, the following formula was used: % inhibition = [(1− (A/B)) × 100], where A is test sample optical density and B is the optical density of the non-treated control.
IC50 values were calculated by plotting linear regression curves of percentage inhibitions versus derivative concentrations. The negative control was obtained by adding dimethyl sulfoxide (DMSO) instead of a DHIT derivative.

mushroom tyrosinase = target: mushroom tyrosinase; set-up: method as in PMID 29521165; details: cited from earlier work

With `COc1ccc(/C=c2\sc3n(c2=O)CCN=3)cc1` [Compound 1 g, (Z)-2-(4-Methoxybenzylidene)-5,6-dihydroimidazo[2,1-b]thiazol-3(2H)-one] the IC50 [1] was > 100 µM.
With `COc1ccc(/C=c2\sc3n(c2=O)CCN=3)c(OC)c1` [Compound 1 h, (Z)-2-(2,4-Dimethoxybenzylidene)-5,6-dihydroimidazo[2,1-b]thiazol-3(2H)-one] the IC50 [1] was > 100 µM.
For `COc1cc(/C=c2\sc3n(c2=O)CCN=3)cc(OC)c1OC` [Compound 1 k, (Z)-2-(3,4,5-Trimethoxybenzylidene)-5,6-dihydroimidazo[2,1-b]thiazol-3(2H)-one], the IC50 [1] was > 100 µM.
For `O=c1/c(=C/c2ccc(O)cc2)sc2n1CCN=2` [Compound 1a, (Z)-2-(4-Hydroxybenzylidene)-5,6-dihydroimidazo[2,1-b]thiazol-3(2H)-one], the “mushroom tyrosinase inhibition compared with kojic acid” value [1] was “inhibited mTYR more than kojic acid”, the IC50 [1] was 36.1 ± 3.9 µM and the “fold stronger tyrosinase inhibitor than kojic acid” value ([1]; ratio of IC50 values) was 2.3 fold.
In the case of `O=c1/c(=C/c2ccc(O)c(O)c2)sc2n1CCN=2` [Compound 1c, (Z)-2-(3,4-Dihydroxybenzylidene)-5,6-dihydroimidazo[2,1-b]thiazol-3(2H)-one], the IC50 [1] is reported as > 100 µM.
With `COc1cc(/C=c2\sc3n(c2=O)CCN=3)ccc1O` [Compound 1d, (Z)-2-(4-Hydroxy-3-methoxybenzylidene)-5,6-dihydroimidazo[2,1-b]thiazol-3(2H)-one] the “Tyrosinase inhibition (%)” value ([1]; […] µM) was 7.83 ± 2.29% and the IC50 [1] was > 100 µM.
With `CCOc1cc(/C=c2\sc3n(c2=O)CCN=3)ccc1O` [Compound 1e, (Z)-2-(3-Ethoxy-4-hydroxybenzylidene)-5,6-dihydroimidazo[2,1-b]thiazol-3(2H)-one] the “Tyrosinase inhibition (%)” value ([1]; […] µM) was 3.90 ± 2.65% and the IC50 [1] was > 100 µM.
In the case of `COc1ccc(/C=c2\sc3n(c2=O)CCN=3)cc1OC` [Compound 1i, (Z)-2-(3,4-Dimethoxybenzylidene)-5,6-dihydroimidazo[2,1-b]thiazol-3(2H)-one], the “Tyrosinase inhibition (%)” value [1] is reported as “low or no mTYR inhibitory activity” and the IC50 [1] is reported as > 100 µM.
With `COc1cc(/C=c2\sc3n(c2=O)CCN=3)cc(OC)c1O` [Compound 1j, (Z)-2-(4-Hydroxy-3,5-dimethoxybenzylidene)-5,6-dihydroimidazo[2,1-b]thiazol-3(2H)-one] the “Tyrosinase inhibition (%)” value [1] was 24.43 ± 1.50% and the IC50 [1] was > 100 µM.
In the case of `[H]/N=C1/NC(=O)C(=Cc2ccc(OC)c(O)c2)S1` [MHY773, (Z)-5-(3-hydroxy-4-methoxybenzylidene)-2-iminothiazolidin-4-one], the IC50 (mushroom tyrosinase; diphenolase) is given as 8.06 µM and the IC50 (mushroom tyrosinase; monophenolase) is given as 2.87 µM.
With `O=c1cc(CO)occ1O` [kojic acid, reference compound] the “Tyrosinase inhibition (%)” value ([1]; […] µM) was 30% and the “Tyrosinase inhibition (%)” value ([1]; listed as KA, […] µM) was 30.26 ± 0.55%.

Reference: article PMC8861568, “Identification of (Z)-2-benzylidene-dihydroimidazothiazolone derivatives as tyrosinase inhibitors: Anti-melanogenic effects and in silico studies” (Computational and Structural Biotechnology Journal, 2022)
